Measured values as given in patent publication US20240277631A1, “SMALL MOLECULE DRUG (ELP-004) TO PREVENT BONE LESIONS CAUSED BY MULTIPLE MYELOMA” (West Virginia University Board of Governors on behalf of …, priority 2023, published 2024).

How the values were obtained:
CYP enzymes = assay: induction of CYP enzymes; type: in vitro ADME
dopamine transporter = dopamine transporter (Homo sapiens, UniProt Q01959); assay: dopamine transport
Excerpt: ELP-004 has been evaluated for its ability to cross the blood brain barrier. […] Other medications, such as but not limited to bupropion, are known to cause problems due to dopamine transporter binding.

Murine BMSMCs = assay: RANKL-induced osteoclastogenesis (TRAP, multinucleation, marker mRNA); type: cell-based; conditions: RANKL (100 ng/ml)
Protocol: Murine BMSMCs were grown for up to 21 days in media supplemented with 50 ng/ml of m-CSF and 100 ng/mL RANKL. Each experiment was repeated a minimum of three times. Cells were fixed and stained for Tartrate Resistant Acid Phosphatase (TRAP) activity at days 1, 7, 14, and 21. The number of trap positive osteoclast-like cells (out of 100 cells) were counted for each time point, along with TRAP intensity, as shown in schematic A. In schematic B, the number of nuclei for each cell counted and the average number of nuclei per cell for 100 cells is shown at each time point.

CYP3A4 = CYP3A4 (Homo sapiens, UniProt P08684); assay: stability with recombinant CYP3A4; type: in vitro ADME; conditions: recombinant CYP3A4, intrinsic clearance, read-out: Recombinant CYP CLINT
Chain of CYP3A4 (P08684 whole entry): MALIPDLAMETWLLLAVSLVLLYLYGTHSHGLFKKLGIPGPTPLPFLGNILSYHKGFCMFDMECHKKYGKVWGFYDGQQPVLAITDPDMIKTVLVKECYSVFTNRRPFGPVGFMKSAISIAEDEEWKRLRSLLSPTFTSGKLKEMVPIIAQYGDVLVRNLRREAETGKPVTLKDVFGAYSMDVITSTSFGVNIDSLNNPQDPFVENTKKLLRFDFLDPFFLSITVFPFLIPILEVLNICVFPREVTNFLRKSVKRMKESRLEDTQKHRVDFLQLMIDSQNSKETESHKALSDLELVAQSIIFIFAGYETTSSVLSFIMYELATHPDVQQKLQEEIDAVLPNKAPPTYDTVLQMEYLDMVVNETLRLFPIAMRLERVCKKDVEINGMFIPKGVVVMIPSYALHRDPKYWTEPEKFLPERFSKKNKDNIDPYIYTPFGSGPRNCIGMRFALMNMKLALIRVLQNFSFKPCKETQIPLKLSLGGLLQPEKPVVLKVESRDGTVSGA
Protocol: Depicted in table 2 is cytochrome P450 phenotyping and inhibition by ELP-004. The stability of ELP-004 was tested in the presence of recombinant enzymes CYP1A2, CYP2B6, CYP2C8, CYP2C9, CYP2C19, CYP2D6, and CYP3A4. ELP-004 (1 μM) was incubated with recombinant enzymes and NADPH. The amount of ELP-004 remaining at each timepoint was analyzed by LC-MS/MS. Incubations in control recombinant enzymes were also performed to assess non-enzymatic mediated stability. The intrinsic clearance of ELP-004 was determined. […] A decrease in the formation of the metabolite compared to vehicle control is used to calculate an IC50 value. Metabolite peak area ratio response as a percentage of vehicle control is plotted against the test compound concentration.

U266 cells = assay: U266 cell viability (Axenin V method) and cell counts; type: cell-based, human
Protocol: The U266 cells were incubated in the presence of the noted concentrations of ELP-004, and the viability of the cells was determined at the indicated times using the Axenin V method.
Initial treatment with N-methyl dichloropropionaniline (N-MeDCPA, ELP-004) was examined. The N-MeDCPA was designed and synthesized and tested in laboratory experiments. A treatment scheme with plated cells was devised using N-MeDCPA as compared to a DMSO vehicle only, along with 100 μM and 200 μM dosages on U266 cell samples. U266 is a B lymphocyte isolated from the peripheral blood of a patient with myeloma and is commonly used in immune system disorder research and immunology research. The cells were allowed to incubate then counted under a 10× lens.
As may be seen in FIG. 1, the growth curve of cell samples as treated with the varying concentrations versus a DMSO vehicle can be observed. The number of cells per milliliter was calculated after examination and counting under the lens.
The effect of ELP-004 (i.e. N-MeDCPA) on […] (a myeloma cell line) proliferation is described above.

Chain of dopamine transporter (Q01959 whole entry): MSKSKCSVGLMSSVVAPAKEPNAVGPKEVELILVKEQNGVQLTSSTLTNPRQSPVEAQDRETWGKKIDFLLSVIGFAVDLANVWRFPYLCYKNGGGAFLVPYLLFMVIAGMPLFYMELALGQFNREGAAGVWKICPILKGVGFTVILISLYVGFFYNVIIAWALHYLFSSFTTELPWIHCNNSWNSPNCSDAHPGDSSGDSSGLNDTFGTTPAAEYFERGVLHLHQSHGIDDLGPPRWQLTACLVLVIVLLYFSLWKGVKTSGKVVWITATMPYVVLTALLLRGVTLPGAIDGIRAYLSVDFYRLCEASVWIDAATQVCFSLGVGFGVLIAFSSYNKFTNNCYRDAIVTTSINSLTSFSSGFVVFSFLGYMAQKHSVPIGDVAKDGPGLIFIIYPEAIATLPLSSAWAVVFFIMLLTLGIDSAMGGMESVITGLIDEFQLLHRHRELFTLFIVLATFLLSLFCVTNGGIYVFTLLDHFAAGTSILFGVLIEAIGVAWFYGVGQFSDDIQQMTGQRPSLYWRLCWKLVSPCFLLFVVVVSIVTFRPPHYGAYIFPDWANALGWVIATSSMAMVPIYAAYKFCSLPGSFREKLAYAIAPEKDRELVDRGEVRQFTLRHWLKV

With `CCC(=O)N(C)c1ccc(Cl)c(Cl)c1` [ELP-004, N-(3,4-dichlorophenyl)-N-methylpropanamide] the “effect on induction of CYP enzymes” value (CYP enzymes) was “no deleterious effect”, the “problems with dopamine transport” value (dopamine transporter) was “does not cause problems with dopamine transport” and the TRAP activity (Murine BMSMCs) was “no significant effect”. For the same molecule, the multinucleation (Murine BMSMCs) was “no significant effect”, the “expression of osteoclast markers” value (Murine BMSMCs; RT-PCR days 7 and 14) was “no significant effect” and the microsomal CLint at 1 μM (CYP3A4) was 0.193 µL/min/mg. For the same molecule, the IC50 (U266 cells; Homo sapiens, U-266, U266 cells, viability by Axenin V method, calculated using two methods) was 154 µM and the myeloma cell proliferation (U266 cells; U66 (U266) myeloma cell line) was “inhibits myeloma cell proliferation”.
